Reference: patent US20260285873A1, “CYCLIC COMPOUNDS USED AS MULTI-TARGET KINASE INHIBITORS AND PREPARATION METHOD THEREFOR” (Shanghai Institute of Organic Chemistry, Chinese Academy of …, priority 2022, published 2026)
Like-named read-outs stand apart in the source and are kept apart here. Blank lines part the entries; values can stand above or below the compound they belong to.

Tests used:
[1] = Oral pharmacokinetic study in rats; assay type: in vivo; settings: rat, brain, male SD rats, oral gavage, read-out: B/P (1 h)
Experimental: Drug preparation: 1% MC was added to the compound, ground, and shaken uniformly. Samples were collected at 5 min, 15 min, 30 min, 1 h, 2 h, 4 h, and 8 h post-dose, followed by analysis using liquid chromatography-tandem mass spectrometry (LC-MS/MS).

[2] = target: LRRK2 wt (Homo sapiens, UniProt Q5S007); experiment: Kinase activity inhibition assay (ADP-Glo), LRRK2 wt; assay type: biochemical; settings: read-out: LRRK2 wt inhibition rate at 100 nM; compound at 100 nM
LRRK2 wt, sequence (Q5S007 whole entry): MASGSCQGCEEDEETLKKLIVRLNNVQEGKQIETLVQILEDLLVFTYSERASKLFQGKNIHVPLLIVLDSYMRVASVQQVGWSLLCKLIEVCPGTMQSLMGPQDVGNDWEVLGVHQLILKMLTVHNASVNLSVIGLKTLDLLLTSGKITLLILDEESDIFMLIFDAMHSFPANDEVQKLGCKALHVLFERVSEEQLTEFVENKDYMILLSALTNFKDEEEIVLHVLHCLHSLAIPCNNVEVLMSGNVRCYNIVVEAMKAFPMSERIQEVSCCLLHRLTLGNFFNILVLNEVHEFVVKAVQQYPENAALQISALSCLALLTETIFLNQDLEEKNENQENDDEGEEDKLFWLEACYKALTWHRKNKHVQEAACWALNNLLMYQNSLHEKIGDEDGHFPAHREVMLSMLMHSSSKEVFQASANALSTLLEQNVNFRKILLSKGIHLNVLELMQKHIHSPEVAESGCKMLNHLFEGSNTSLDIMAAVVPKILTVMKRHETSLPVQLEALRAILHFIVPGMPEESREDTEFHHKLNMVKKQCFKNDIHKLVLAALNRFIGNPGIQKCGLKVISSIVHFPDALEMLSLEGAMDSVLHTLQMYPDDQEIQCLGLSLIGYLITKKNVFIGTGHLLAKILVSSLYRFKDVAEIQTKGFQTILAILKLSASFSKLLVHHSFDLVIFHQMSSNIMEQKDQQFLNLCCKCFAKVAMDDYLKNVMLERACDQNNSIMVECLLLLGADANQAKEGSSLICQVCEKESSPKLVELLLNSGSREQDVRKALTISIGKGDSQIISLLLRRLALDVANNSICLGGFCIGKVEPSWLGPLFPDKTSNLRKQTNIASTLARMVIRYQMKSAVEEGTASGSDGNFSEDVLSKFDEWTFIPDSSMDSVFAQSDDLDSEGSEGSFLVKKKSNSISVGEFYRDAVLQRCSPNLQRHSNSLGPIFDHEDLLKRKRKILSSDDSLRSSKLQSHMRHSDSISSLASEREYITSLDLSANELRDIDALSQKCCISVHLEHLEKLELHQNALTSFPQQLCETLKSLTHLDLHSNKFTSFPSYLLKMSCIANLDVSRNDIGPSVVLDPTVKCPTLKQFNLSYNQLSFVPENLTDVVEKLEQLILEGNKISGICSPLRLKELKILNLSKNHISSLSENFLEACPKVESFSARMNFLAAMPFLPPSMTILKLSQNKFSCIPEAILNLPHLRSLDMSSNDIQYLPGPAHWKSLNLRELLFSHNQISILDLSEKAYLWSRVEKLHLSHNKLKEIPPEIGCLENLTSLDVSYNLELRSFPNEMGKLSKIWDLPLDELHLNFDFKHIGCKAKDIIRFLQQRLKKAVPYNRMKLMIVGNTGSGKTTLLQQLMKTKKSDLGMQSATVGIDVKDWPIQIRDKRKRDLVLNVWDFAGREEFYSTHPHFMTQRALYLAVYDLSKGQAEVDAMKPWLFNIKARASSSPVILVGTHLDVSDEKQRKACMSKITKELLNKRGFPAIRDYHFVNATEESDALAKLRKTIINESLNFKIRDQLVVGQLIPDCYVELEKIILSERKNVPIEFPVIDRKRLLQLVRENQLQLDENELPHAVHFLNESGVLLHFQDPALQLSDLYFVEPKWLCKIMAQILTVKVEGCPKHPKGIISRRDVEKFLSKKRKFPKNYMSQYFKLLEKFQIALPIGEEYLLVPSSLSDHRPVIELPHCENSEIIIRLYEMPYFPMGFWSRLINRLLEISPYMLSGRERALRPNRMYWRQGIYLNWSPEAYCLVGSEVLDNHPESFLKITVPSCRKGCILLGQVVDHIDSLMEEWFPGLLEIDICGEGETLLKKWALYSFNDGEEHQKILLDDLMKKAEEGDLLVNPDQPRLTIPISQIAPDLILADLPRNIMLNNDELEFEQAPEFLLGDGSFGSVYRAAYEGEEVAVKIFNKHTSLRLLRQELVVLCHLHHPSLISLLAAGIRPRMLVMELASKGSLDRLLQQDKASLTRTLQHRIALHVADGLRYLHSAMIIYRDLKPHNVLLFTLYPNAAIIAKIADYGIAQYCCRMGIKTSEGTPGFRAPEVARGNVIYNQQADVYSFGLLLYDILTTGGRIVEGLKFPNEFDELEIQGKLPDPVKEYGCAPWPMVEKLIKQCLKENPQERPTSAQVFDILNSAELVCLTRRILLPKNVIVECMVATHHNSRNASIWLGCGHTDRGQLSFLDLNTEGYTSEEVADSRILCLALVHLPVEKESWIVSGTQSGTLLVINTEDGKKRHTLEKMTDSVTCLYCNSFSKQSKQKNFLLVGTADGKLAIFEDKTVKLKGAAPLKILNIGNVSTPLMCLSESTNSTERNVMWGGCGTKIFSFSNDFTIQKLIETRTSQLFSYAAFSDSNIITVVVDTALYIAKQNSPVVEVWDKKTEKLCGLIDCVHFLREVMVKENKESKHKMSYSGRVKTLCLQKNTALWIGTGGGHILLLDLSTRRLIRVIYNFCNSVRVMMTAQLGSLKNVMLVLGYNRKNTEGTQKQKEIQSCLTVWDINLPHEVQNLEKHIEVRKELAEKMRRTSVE
Experimental: The kinase activity inhibition assay was performed by ICE Bioscience (Beijing) using ADP-Glo and HTRF methods.

- Kp at 1 h ([1]; 3 mg/kg, 3 mpk): 0.13
Structure (SMILES): Cc1nn2cc1Nc1ncc(C(F)(F)F)c(n1)NCCCNC(=O)C2(C)C [Example T-1, (E)-3^3,4,4-Trimethyl-15-(trifluoromethyl)-3^1H-2,6,10-triaza-1(2,4)-pyrimidina-3(4,1)-pyrazolacyclodecan-5-one]

- Kp at 1 h ([1]; 5 mg/kg, 5 mpk): 0.58
Structure (SMILES): Cc1nn2cc1Nc1ncc3c(Cl)cc(n3n1)CCCNC(=O)C2(C)C [Example T-25, (1^1Z,3^4E)-1^5-Chloro-3^3,4,4-trimethyl-3^1H-2,6-diaza-1(2,7)-pyrrolo[2,1-f][1,2,4]triazine-3(4,1)-pyrazolacyclononan-5-one]

- inhibition at 0.1 µM [2]: 42.1%
Structure (SMILES): Cc1nn2cc1Nc1ncc(C(F)(F)F)c(n1)NC1CCCC(C1)NC(=O)C2(C)C (stereo not drawn) [Example T-42, (5^3R,E)-1^3,8,8-Trimethyl-3^5-(trifluoromethyl)-1^1H-2,4,6-triaza-3(2,4)-pyrimidina-1(4,1)-pyrazola-5(1,3)-cyclohexacyclooctan-7-one]
